Assays:
HL-60 [1] = assay: Tested for the inhibition of HL60 cell adhesion to recombinant E-selectin-IgG fusion protein measured by cell culture assay.; assay type: functional, cell-based; conditions: Homo sapiens
HL-60 [2] = assay: Tested for the inhibition of HL60 cell adhesion to recombinant P-selectin-IgG fusion protein measured by cell culture assay.; assay type: functional, cell-based; conditions: Homo sapiens
Rattus norvegicus [3] = assay: Tested for the inhibition of leukocyte adhesion in rat mesenteric venules in vivo at a dose of 3 mg/kg measured by intravital microscopy.; assay type: functional
Oryctolagus cuniculus [4] = organism: Oryctolagus cuniculus; assay: Percent incidence of heart arrhythmia and Ventricular fibrillation in isolated rabbit hearts at a concentration of 3 uM.; assay type: functional
Rattus norvegicus [5] = assay: Tested for the inhibition of leukocyte adhesion in rat mesenteric venules in vivo at a dose of 10 mg/kg measured by intravital microscopy.; assay type: functional
Rattus norvegicus [6] = assay: Tested for the inhibition of leukocyte adhesion in rat mesenteric venules in vivo at a dose of 1 mg/kg measured by intravital microscopy.; assay type: functional
Oryctolagus cuniculus [7] = organism: Oryctolagus cuniculus; assay: Percent incidence of heart arrhythmia and Ventricular fibrillation in isolated rabbit hearts at a concentration of 1 uM.; assay type: functional

O=C(O)C1CCN(C(=O)O[C@@H]2CCCC[C@H]2O[C@@H]2O[C@@H](CO)[C@H](O)[C@H](O)[C@H]2O)CC1
IC50 (HL-60 [1]): 5 mM | IC50 (HL-60 [2]): > 10 mM | inhibition in vivo at 3 mg/kg (Rattus norvegicus [3]): 38%

CC(=O)N[C@H]1[C@H]([C@@H](O)[C@@H](O)CO)O[C@@](O[C@@H]2[C@H](O)[C@H](O[C@H]3[C@H](O[C@@H]4O[C@@H](C)[C@@H](O)[C@H](O)[C@@H]4O)[C@H](NC(C)=O)C(O)O[C@H]3CO)O[C@@H](CO)[C@@H]2O)(C(=O)O)C[C@H]1O (some centres undefined)
Incidence (Oryctolagus cuniculus [4]): 50% | inhibition in vivo at 10 mg/kg (Rattus norvegicus [5]): 63% | inhibition in vivo at 1 mg/kg (Rattus norvegicus [6]): 57%

CC1OC(OC2CCCCC2OC(=O)N2CCC(C(=O)O)CC2)C(O)C(O)C1O (centres undefined)
IC50 (HL-60 [1]): > 5 mM | IC50 (HL-60 [2]): > 5 mM | Incidence (Oryctolagus cuniculus [7]): 50% | inhibition in vivo at 10 mg/kg (Rattus norvegicus [5]): 81% | inhibition in vivo at 1 mg/kg (Rattus norvegicus [6]): 64% | inhibition in vivo at 3 mg/kg (Rattus norvegicus [3]): 69%

O=C(O)C1CCN(C(=O)O[C@@H]2CCCC[C@H]2O[C@H]2O[C@@H](CO)[C@@H](O)[C@H](O)[C@H]2O)CC1
IC50 (HL-60 [1]): > 10 mM | IC50 (HL-60 [2]): > 10 mM | inhibition in vivo at 3 mg/kg (Rattus norvegicus [3]): 56%

CC1OC(OC2CCCCC2OC(=O)N2CCC(C(=O)O)(C(=O)O)CC2)C(O)C(O)C1O (centres undefined)
IC50 (HL-60 [1]): 1.6 mM | IC50 (HL-60 [2]): 7.5 mM | Incidence (Oryctolagus cuniculus [7]): 50% | inhibition in vivo at 3 mg/kg (Rattus norvegicus [3]): 49%

— ChEMBL document CHEMBL1152039, “PIPERIDINE CARBOXYLIC ACID DERIVATIVES AS SIALYL LEWIS X MIMETICS” (Bioorg Med Chem Lett, 1997)
